In test [1] the test system is KM12. Nature of the test: Antiproliferative activity against human KM12 cells assessed as reduction in cell viability for 72 hrs by MTT assay. The conditions noted are these: KM12, 72 h.
The subject of another test is A549. Kind of test: Antiproliferative activity against human A549 cells assessed as reduction in cell viability for 72 hrs by MTT assay. As to conditions: A549, 72 h.
Test [2] concerns the target BDNF/NT-3 growth factors receptor (Homo sapiens, UniProt Q16620). Kind of test: Inhibition of TRKB (unknown origin) incubated for 1 hr by mobility shift assay.
For test [3], the target named is NT-3 growth factor receptor (Homo sapiens, UniProt Q16288). Nature of the test: Inhibition of TRKC (unknown origin) incubated for 1 hr by mobility shift assay.
The target of test [4] is High affinity nerve growth factor receptor (Homo sapiens, UniProt P04629). Nature of the test: Inhibition of TRKA (unknown origin) incubated for 1 hr by mobility shift assay.
Test [5] deals with KM12. Nature of the test: Inhibition of colony formation in human KM12 cells assessed as decrease in colony count at 75 nM incubated for 72 hrs by crystal violet staining based assay. In kind it is functional, cell-based.

Each structure is given as a SMILES string. pIC50: −log10 of the molar value. Activity calls are given as the source filed them. No cut-off for these calls is given here.

High affinity nerve growth factor receptor, sequence (P04629 whole entry): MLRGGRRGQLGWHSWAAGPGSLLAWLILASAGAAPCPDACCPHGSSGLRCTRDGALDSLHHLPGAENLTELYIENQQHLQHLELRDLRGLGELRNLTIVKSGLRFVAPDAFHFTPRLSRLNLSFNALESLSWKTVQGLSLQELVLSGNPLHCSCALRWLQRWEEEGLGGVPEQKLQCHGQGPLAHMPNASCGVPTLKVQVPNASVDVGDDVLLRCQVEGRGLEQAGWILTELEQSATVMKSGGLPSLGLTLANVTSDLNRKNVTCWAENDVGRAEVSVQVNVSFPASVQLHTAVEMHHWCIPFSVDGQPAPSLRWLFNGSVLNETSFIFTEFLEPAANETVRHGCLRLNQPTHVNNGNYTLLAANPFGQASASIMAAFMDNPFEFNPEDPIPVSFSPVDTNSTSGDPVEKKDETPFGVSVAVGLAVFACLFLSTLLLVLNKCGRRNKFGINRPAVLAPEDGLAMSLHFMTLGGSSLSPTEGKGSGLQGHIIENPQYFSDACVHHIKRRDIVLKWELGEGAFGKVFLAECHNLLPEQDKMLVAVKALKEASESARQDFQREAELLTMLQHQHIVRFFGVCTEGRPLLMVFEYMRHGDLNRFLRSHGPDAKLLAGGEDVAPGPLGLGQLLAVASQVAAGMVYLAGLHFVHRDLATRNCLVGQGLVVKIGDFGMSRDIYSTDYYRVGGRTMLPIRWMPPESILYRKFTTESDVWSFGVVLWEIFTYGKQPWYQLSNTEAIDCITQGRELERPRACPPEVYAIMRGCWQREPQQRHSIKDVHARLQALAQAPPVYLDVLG
BDNF/NT-3 growth factors receptor, sequence (Q16620 whole entry): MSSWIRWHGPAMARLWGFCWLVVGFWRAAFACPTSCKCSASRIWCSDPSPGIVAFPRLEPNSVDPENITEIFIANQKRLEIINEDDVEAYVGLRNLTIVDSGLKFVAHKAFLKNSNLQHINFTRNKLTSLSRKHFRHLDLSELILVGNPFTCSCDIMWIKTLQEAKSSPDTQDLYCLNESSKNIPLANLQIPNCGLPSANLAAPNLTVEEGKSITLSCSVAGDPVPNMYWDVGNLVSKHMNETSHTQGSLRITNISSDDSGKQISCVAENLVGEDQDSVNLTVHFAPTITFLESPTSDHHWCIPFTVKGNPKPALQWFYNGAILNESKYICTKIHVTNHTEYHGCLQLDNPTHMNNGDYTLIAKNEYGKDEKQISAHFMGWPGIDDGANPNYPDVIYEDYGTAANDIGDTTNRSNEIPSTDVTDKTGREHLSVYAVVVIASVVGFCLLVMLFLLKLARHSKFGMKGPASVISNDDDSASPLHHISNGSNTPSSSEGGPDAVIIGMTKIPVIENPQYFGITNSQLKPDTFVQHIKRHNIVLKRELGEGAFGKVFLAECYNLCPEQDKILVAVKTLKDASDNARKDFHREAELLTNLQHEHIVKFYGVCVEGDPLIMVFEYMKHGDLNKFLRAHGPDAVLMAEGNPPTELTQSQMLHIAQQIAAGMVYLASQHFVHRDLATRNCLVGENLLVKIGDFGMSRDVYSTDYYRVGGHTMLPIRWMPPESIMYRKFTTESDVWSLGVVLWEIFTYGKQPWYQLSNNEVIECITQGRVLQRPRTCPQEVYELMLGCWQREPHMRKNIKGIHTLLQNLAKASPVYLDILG
NT-3 growth factor receptor, sequence (Q16288 whole entry): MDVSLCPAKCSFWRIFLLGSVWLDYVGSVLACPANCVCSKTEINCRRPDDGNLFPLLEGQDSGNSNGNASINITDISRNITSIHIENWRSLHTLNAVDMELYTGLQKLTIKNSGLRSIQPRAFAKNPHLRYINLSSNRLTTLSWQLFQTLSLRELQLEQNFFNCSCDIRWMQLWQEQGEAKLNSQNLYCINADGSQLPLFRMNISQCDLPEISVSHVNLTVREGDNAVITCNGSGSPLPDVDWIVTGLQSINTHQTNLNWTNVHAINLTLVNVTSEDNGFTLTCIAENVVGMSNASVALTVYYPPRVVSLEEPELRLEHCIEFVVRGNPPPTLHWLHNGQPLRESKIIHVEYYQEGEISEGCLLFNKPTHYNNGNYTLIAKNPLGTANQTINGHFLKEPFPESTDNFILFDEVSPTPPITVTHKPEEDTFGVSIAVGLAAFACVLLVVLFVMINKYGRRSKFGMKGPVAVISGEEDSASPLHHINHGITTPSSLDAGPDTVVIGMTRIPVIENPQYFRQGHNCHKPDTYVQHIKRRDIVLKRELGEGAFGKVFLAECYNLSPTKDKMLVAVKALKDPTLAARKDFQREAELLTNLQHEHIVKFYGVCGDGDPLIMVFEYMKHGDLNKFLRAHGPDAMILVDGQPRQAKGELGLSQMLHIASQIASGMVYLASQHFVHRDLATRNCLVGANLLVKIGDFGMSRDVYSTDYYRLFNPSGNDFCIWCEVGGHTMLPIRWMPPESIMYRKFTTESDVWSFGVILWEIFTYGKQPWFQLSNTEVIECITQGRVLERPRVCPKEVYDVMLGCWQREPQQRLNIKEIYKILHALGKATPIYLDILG

One may read the pIC50 as the IC50 on a negative log10 scale, so that one unit is a factor of ten. `O=C(Nc1cccc(-n2cc(CN3CCS(=O)(=O)CC3)nn2)c1)c1cc(F)cc(F)c1`: the results for the pIC50 in the test on KM12 [1] and in the test with A549 were 4.91 and < 5.00, respectively.

For the compound `O=C(Nc1cccc(-c2csc(N3CCOCC3)n2)c1)c1cc(F)cc(F)c1`, the figures for the pIC50 in the test on KM12 [1] and in the test with A549 were 5.02 and 6.57, respectively.

For `CN(C)Cc1cn(-c2cccc(NC(=O)c3cc(F)cc(F)c3)c2)nn1`, the pIC50 is 4.76 with KM12 [1] and < 5.00 in the test with A549.

In the case of `CN(C)c1nc(-c2cccc(NC(=O)c3cc(F)cc(F)c3)c2)cs1`, the values for the pIC50 with KM12 [1] and in the test on A549 were 4.54 and 5.92, respectively.

Regarding `O=C(Nc1cccc(-c2csc(N3CCN(CCO)CC3)n2)c1)c1cc(F)cc(F)c1`, the pIC50 in test [2] was < 7.00; in the test with KM12 [1], 5.14; in test [3], < 7.00; with A549 it was 6.29; in test [4], < 7.00.

Turning to `O=C(Nc1cccc(-c2csc(N3CCC(O)CC3)n2)c1)c1cc(F)cc(F)c1`, the pIC50 with KM12 [1] is 5.12; in the test on A549 it was 6.68.

As to `O=C(Nc1cccc(-n2cc(CNC3CCCC3)nn2)c1)c1cc(F)cc(F)c1`, the figures for the pIC50 in the test on KM12 [1] and in the test with A549 were 5.42 and < 5.00, respectively.

As to `O=C(Nc1cccc(-c2csc(N3CCCC3)n2)c1)c1cc(F)cc(F)c1`, the pIC50 with KM12 [1] is 4.78; in the test with A549 it was 6.77.

For `O=C(Nc1cccc(-c2csc(N3CCC[C@H]3CO)n2)c1)c1cc(F)cc(F)c1`, the results for the pIC50 in the test on KM12 [1] and in the test with A549 were 5.09 and 6.41, respectively.

Regarding `O=C(Nc1cccc(-n2cc(CNC3CC3)nn2)c1)c1cc(F)cc(F)c1`, the pIC50 with KM12 [1] was 5.28; with A549, < 5.00.

In the case of `CN1CCN(c2ccc(NCc3cn(-c4cccc(CNc5cc(F)cc(F)c5)c4)nn3)cc2C(=O)N2CCCCC2)CC1`, the pIC50 with KM12 [1] was 6.12; in the test on A549, < 5.00.

Regarding `CN1CCN(c2ccc(NCc3cn(-c4cccc(CNc5cc(F)cc(F)c5)c4)nn3)cc2C(=O)N(C)C)CC1`, the values for the pIC50 in the test with KM12 [1] and with A549 were 5.77 and < 5.00, respectively.

`O=C(Nc1cccc(-n2cc(CN3CCCC3)nn2)c1)c1cc(F)cc(F)c1`: the pIC50 with KM12 [1] was 5.10; in the test with A549, < 5.00.

On to `CN1CCN(c2nc(-c3cccc(NC(=O)c4cc(F)cc(F)c4)c3)cs2)CC1`, for which the pIC50 in the test on KM12 [1] is 4.85; in the test on A549 it was 6.14.

With `CN1CCN(c2ccc(NCc3cn(-c4cccc(NCc5cc(F)cc(F)c5)c4)nn3)cc2C(=O)N2CCOCC2)CC1`, the pIC50 is 6.20 with KM12 [1] and < 5.00 with A549.

Consider `O=C(Nc1cccc(-n2cc(CN3CCSCC3)nn2)c1)c1cc(F)cc(F)c1`, for which the negative logarithm of the IC50 (pIC50) is 4.91 in the test on KM12 [1] and < 5.00 with A549.

`O=C(Nc1cccc(-c2csc(NCCO)n2)c1)c1cc(F)cc(F)c1`: the results for the pIC50 in the test on KM12 [1] and with A549 were 4.77 and 6.26, respectively.

For `CN1CCN(c2ccc(C(=O)Nc3n[nH]c4ccc(Cc5cc(F)cc(F)c5)cc34)c(NC3CCOCC3)c2)CC1`, in the test on KM12 [5], the inhibition entry was “Active”.

Turning to `CN1CCN(c2ccc(NCc3cn(-c4cccc(CNc5cc(F)cc(F)c5)c4)nn3)cc2C(=O)N2CCCC2)CC1`, the pIC50 was 6.02 in the test on KM12 [1] and < 5.00 in the test with A549.

These data come from ChEMBL document CHEMBL5360525, “Design, synthesis and anti-tumor efficacy of novel phenyl thiazole/triazole derivatives as selective TrkA inhibitors” (Bioorg Med Chem, 2022).
